Patent publication US9339488B2, “Anti-cervical cancer compound and method of use thereof” (Hong Kong Baptist University, priority 2013, dated 2016)

Experiments:
HeLa LC3-GFP cells = test: Fluorescence microscopy of GFP-LC3 puncta formation (autophagy); format: cell-based, human; details: 1-20 μM for 24 hours, 10 μM for 6, 12 and 24 hours, FIG. 1, 2
Experimental: LC3, a known autophagy indicator, is used to show Griffipavixanthone's ability to induce autophagy in cancer cells and thus provide anti-cancer property. 1×10^5/ml HeLa LC3-GFP cells are seeded in a 35 mm×10 mm culture dish and preincubated for 24 hours before treatment with griffipavixanthone. HeLa LC3-GFP cells are treated with vehicle (control), 1 μM, 5 μM, 10 μM and 20 μM for 24 hours. After treatment of griffipavixanthone, the medium is removed from the dish and 4% methyl aldehyde with 0.3% triton-100 is added for fastening and permeation. The staining solution DAPI is added. Fluorescence of the bound dyes is analyzed using a laser scanning confocal microscope (FV10i, OlympusCorporation, Japan). […] Griffipavixanthone induces autophagy in cervical cancer cells at concentration and time dependent manner.

HeLa cells [1] = test: MTT cytotoxic assay; format: cell-based; details: 0.1-20 μM, 72 hours; FIG. 3
Experimental: Human cervical cancer cell lines HeLa are maintained in DMEM (Invitrogen) supplemented with 10% newborn calf serum (Gibco, Life technologies Corporation, New Zealand), 1% penicillin/streptomycin (Invitrogen). Cells are maintained in a humidified atmosphere containing 5% CO2 at 37° C.
4×10^4/ml HeLa cells are seeded in a 96-well plate and preincubated for 24 hours before treatment with Griffipavixanthone (0.1-20 μM). After 72 hours, 10 μl of MTT solution (5 mg/ml) (Sigma Chemical Company, St. Louis, Mo., USA) are added to each well for 4 hours. The resulting crystals are dissolved in DMSO. The controls are native cells treated with medium only. The spectrophotometric absorbance at 570 nm is measured using a microplate reader (Synergy HT, Bio-Tek Instruments Inc., Winooski, Vt., USA). The percentage cytotoxicity is calculated by the formula: Percentage cytotoxicity (cell death)=[1-(absorbance of experimental wells/absorbance of control wells)]×100%.

HeLa cells [2] = test: Flow cytometer (FACS, PI staining) analysis of cell death; format: cell-based, human; details: 1 and 10 μM, 24 hours; DMEM vs EBSS (serum-free medium); FIG. 4
Experimental: 3×10^5/ml HeLa cells are treated with Griffipavixanthone (1 and 10 μM) for 24 hours. Cells are trypsinized and fixed in ice-cold 100% methanol overnight at 4° C. Cells are washed, incubated with the staining solution (100 μg/ml RNase A and 20 μg/ml PI in Phosphate Buffer Saline (PBS) with 5% NBCS) for 60 minutes, and subjected to fluorescence activated cell sorting (FACS) analysis on a FACScan flowcytometer (BD PharMingen, USA). Data are analyzed using the FlowJo software.

HeLa cells [3] = test: Western blot analysis of LC3-I, LC3-II and p62 expression; format: cell-based, human; details: 0, 1 and 5 μM, 24 hours; FIG. 5
Experimental: 6×10^5/ml HeLa cells are treated with Griffipavixanthone (0, 1 and 5 μM) for 24 hours. Cells are collected and cleavaged by RIPA and PMSF. Proteins are extracted and separated by 12% gel SDS-PAGE, and then are transferred to PVDF. Membranes are blocked with 5% nonfat dry milk in TBST for 0.5 hour. They are incubated and exposed with the respective primary antibodies, testing the content change of protein. The primary antibodies used to detect proteins in autophagy pathway: LC3 (16, 18 kD), p62 (62 kD) and GAPDH (37 kD).

[4] = system: HeLa cells xenograft tumor; test: Inhibition of tumor growth in HeLa xenograft nude mouse model; format: in vivo, nude mice; details: intratumor injection 40 ng/kg/day or 80 ng/kg/day once every other day for 18 days; FIG. 6
Experimental: A total of 2×10^6 HeLa cells suspended in 100 μL of saline are inoculated s.c. into the right flank of 4-week-old male nude mice. Drug injections are made once the tumors reach an average volume of about 100 mm^3. Mice are divided randomly into two groups and subjected to intratumor injection of vehicle or Griffipavixanthone (40 ng/kg/day or 80 ng/kg/day) once every other day for 18 days. A total 2 μg/mouse and 4 μg/mouse are given to the two groups of mice in the 18 days treatment. Tumor volume is measured by caliper measurements (V=L×W^2/2). For intratumor injection, Griffipavixanthone is prepared in 0.5% dimethyl sulfoxide, 0.5% tween 80, and 99% PBS. […] The dosage of administered Griffipavixanthone is translated to a human dosage of 3.2 ng/kg/day to 6.4 ng/kg/day with the equation: human equivalent dose=animal dose×animal Km/human Km, where mouse Km factor is 3 and human Km factor is 37 as disclosed in Reagan-Shaw, S., Nihal, M. and Ahmad N., “Dose translation from animal to human studies revisited”, The FASEB Journal, Life Science Forum, disclosure of which is incorporated herein by reference in its entity.

[5] = system: leukemia cells, lung cancer cells and fibrosarcoma cells; details: Tetrahedron Letters 1998, 39: 9103-9106; cited from earlier work

SMILES: CC1=CC2c3c(c(O)c(O)c4oc5cc(O)cc(O)c5c(=O)c34)C(c3cc(O)c(O)c4oc5cc(O)cc(O)c5c(=O)c34)C2C(C)(C)C1 (stereo not drawn) [Griffipavixanthone]
- GFP-LC3 puncta formation (percentage of GFP-LC3 positive cells) (HeLa LC3-GFP cells): increases GFP-LC3 puncta formation at concentration and time dependent manner
- HeLa cell viability / cytotoxicity (MTT) (HeLa cells [1]): inhibit HeLa cell lines at concentration dependent manner
- HeLa cell death (FACS) (HeLa cells [2]): induces HeLa cell death significantly in serum-free medium at concentration dependent manner
- Autophagosome accumulation (LC3-I, LC3-II, p62 immunoblot) (HeLa cells [3]): increases autophagosome accumulation and induces autophagy
- Tumor growth (tumor volume) [4]: growth of tumor is inhibited
- In vitro cytotoxicity [5]: high in vitro cytotoxity
